# According to PubChem BioAssay AID449745 (Broad Institute, 2010):
# Inconclusive results are not listed. Active and inactive are the calls of the source. How the calls were made is not given here.
# Molecular target: Zinc finger protein mex-5 (Caenorhabditis elegans) (UniProt Q9XUB2)
# Experiment: retest of MEX-5 TCR-2 binding inhibitors, confirmation, biochemical, C. elegans, fluorescence polarization, dose retest (AID 449745);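 further: potency is for blocking Mex-5 binding to labeled TCR2 RNA like unlabeled competitor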
# Details: Mex-5 / TCR-2 RNA binding
# Zinc finger protein mex-5 (Caenorhabditis elegans), sequence (Q9XUB2 whole entry, looked up): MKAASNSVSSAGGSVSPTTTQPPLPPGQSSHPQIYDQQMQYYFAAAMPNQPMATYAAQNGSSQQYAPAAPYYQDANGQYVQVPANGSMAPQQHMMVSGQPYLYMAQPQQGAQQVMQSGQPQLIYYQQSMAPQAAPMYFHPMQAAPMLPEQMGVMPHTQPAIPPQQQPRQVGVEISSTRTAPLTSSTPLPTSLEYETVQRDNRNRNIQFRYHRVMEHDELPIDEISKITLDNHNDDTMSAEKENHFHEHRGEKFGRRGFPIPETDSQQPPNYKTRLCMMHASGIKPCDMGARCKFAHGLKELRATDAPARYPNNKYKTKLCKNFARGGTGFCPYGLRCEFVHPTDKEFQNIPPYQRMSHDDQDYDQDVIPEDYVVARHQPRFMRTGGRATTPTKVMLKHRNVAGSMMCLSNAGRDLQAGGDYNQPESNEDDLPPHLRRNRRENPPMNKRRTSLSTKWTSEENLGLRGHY
row,Structure (SMILES),AC50
1,O=C(O)c1cc(O)c2c(c1)[C@@H]([C@H]1c3cc(C(=O)O)cc(O)c3C(=O)c3c(O[C@@H]4O[C@H](CO)[C@@H](O)[C@H](O)[C@H]4O)cccc31)c1cccc(OC3O[C@H](CO)[C@@H](O)[C@H](O)[C@H]3O)c1C2=O (some centres undefined),1.52 µM
2,O=C(CCCN1C(=O)/C(=C/c2ccccc2Cl)SC1=S)NNC(=O)c1ccc(Cl)cc1,> 38 µM (inactive)
3,CN1C(=O)C(=Cc2sc(=O)n(-c3ccccc3)c2N(C)C)C(=O)N(C)C1=O,> 38 µM (inactive)
4,Cn1c(=O)c2[nH]c(-c3ccccc3)c(O)c2n(C)c1=O,0.895 µM
5,COc1ccc2cc(N=Cc3nc(-c4ccc(C)cc4)oc3O)cnc2c1,> 38 µM (inactive)
6,CN(C)C1C(=O)C(C(N)=O)=C(O)C2(O)C(=O)C3=C(O)c4c(O)cccc4C(C)(O)C3CC12 (centres undefined),> 38 µM (inactive)
7,CCc1ccc[n+](-c2[nH]c(=O)sc2/C=N/NC([S-])=Nc2ccccc2)c1,4.63 µM
8,COc1ccc2c(c1)NP(=S)(Oc1ccccc1)N2 (centres undefined),12.8 µM
9,COc1cc(CCC(=O)Nc2ccc(Cl)c(C(F)(F)F)c2)cc(OC)c1OC,> 38 µM (inactive)
10,Cc1ccc(N=C2NC(=O)/C(=C\c3ccc(C)s3)S2)cc1,> 38 µM (inactive)
11,COc1ccc(N/C=C/C(=O)c2ccc3c(c2)OCO3)cc1OC,> 38 µM (inactive)
12,Cc1nnc(SCc2nc3sc4c(c3c(=O)[nH]2)CCCC4)n(N)c1=O,> 38 µM (inactive)
13,O=C(O)c1cc(-c2ccc(/C=c3\sc4nc5ccc(Br)cc5n4c3=O)o2)ccc1Cl,5.15 µM
14,O=C(c1nc2ccc(Cl)cn2c1CN1CCC[C@H]1CO)N1CCCCCCC1,27.3 µM
15,C=C1c2cccc(O)c2C(O)=C2C(=O)[C@]3(O)C(O)=C(C(N)=O)C(=O)[C@@H](N(C)C)[C@@H]3[C@@H](O)[C@H]12,17.7 µM
16,O=c1cc2c(=O)oc3cc(O)c(O)oc3c2c(O)c1O,3 µM
17,Cc1ccc(N2C(=O)NC(=O)/C(=C\c3ccc([N+](=O)[O-])o3)C2=O)cc1,6.08 µM
18,COc1ccc(N2C(=O)NC(=O)/C(=C\c3ccc([N+](=O)[O-])s3)C2=O)cc1,18.7 µM
19,Cc1ccc(C(=O)O)cc1N1C(=O)c2cccc3c([N+](=O)[O-])ccc(c23)C1=O,25.6 µM
20,O=C(CCN1C(=O)/C(=C/c2ccco2)SC1=S)Nc1ccc(C(=O)O)c(O)c1,30.6 µM
21,CCC(C)[C@H](NC(=O)C1CC(=O)N(c2ccc3c(c2)OCO3)C1)C(=O)NC1CCCCC1 (some centres undefined),35.8 µM
22,CC(=O)Nc1ccc2cc3ccc(NC(C)=O)cc3nc2c1,10.9 µM
23,N#C/C(=C\c1cccs1)C(=O)Nc1ccccn1,32.6 µM
24,O=S(=O)(Nc1ccc(O)c(NS(=O)(=O)c2ccccc2)c1)c1ccccc1,6.92 µM
25,NC(=S)NNc1cccc2cccnc12,0.987 µM

row,Structure (SMILES),AC50
1,O=c1[nH]c(/C=C/c2cccc3ccccc23)nc2ccccc12,> 38 µM (inactive)
2,Nc1c(C(=O)C2CC2)sc2nc(-c3cccs3)cc(C(F)(F)F)c12,> 38 µM (inactive)
3,COc1ccccc1CN1CC(C(=O)NCCN(C)CCc2ccccc2)CCC1=O (centres undefined),> 38 µM (inactive)
4,Cc1ccnc(N2C(=O)c3cccc4c([N+](=O)[O-])ccc(c34)C2=O)c1,14.8 µM
5,COc1ccc(OC)c(N2C(=O)NC(=O)/C(=C/c3ccc([N+](=O)[O-])s3)C2=O)c1,22 µM
6,CN1CCN(c2nc(-c3ccccc3)nc(-c3ccccc3)c2C#N)CC1,> 38 µM (inactive)
7,O=C(C[n+]1ccc(C(=O)N/N=C/c2ccc(OCc3ccccc3)cc2)cc1)c1ccccc1,18.7 µM
8,O=C(O)C1Nc2c(Cl)cc(Cl)cc2C2C=CCC12 (centres undefined),33.2 µM
9,COCCCNC(=O)c1ccc2c3c(onc13)-c1ccccc1C2=O,< 0.3 µM
10,COC(=O)c1cc(O)c(O)c(O)c1,25.4 µM
11,O=C1c2ccccc2C(=O)N1/N=C/c1ccc(O)c(O)c1O,0.798 µM
12,CN(C)c1ccc(C(c2nnnn2CCOC(=O)Nc2ccc(Cl)cc2)N2CCOCC2)cc1 (centres undefined),> 38 µM (inactive)
13,CCOC(=O)c1c(-c2ccccc2)oc2ccc(OCC(=O)NNC(=O)CCC(=O)O)cc12,15.1 µM
14,O=C(O)c1ccccc1NS(=O)(=O)c1cccc(-n2sc3ccccc3c2=O)c1,7.89 µM
15,N=c1c(S(=O)(=O)c2ccc(Cl)cc2)cc2c(=O)n3ccccc3nc2n1CC1CCCO1 (centres undefined),> 38 µM (inactive)
16,CC(C)N1CCc2c(sc(NC(=O)c3ccc(S(=O)(=O)N4CCCCC4C)cc3)c2C(N)=O)C1 (centres undefined),> 38 µM (inactive)
17,COCC1CCN(Cc2c(C(=O)N3CCc4ccccc4C3)nc3ccc(Cl)cn23)C1 (centres undefined),21.5 µM
18,O=C(O)COc1ccccc1C(Nc1cccnc1)c1cc(Cl)c2cccnc2c1O (centres undefined),10.5 µM
19,CCn1c(SCc2nc3sc(C(=O)O)c(C)c3c(=O)[nH]2)nc2ccccc21,13 µM
20,O=c1[nH]c(=S)n(-c2ccc(Cl)cc2)c(O)c1C=Nc1ccc(N2CCOCC2)cc1,30 µM
21,CC1C(=O)NN=C1C(=O)N/N=C\c1ccc(O)cc1O (centres undefined),10.2 µM
22,CCOC(=O)NNc1ccc2nonc2c1[N+](=O)[O-],> 38 µM (inactive)
23,COC/C=C/C1=CC2=CC(=O)C(C)(OC(=O)c3cnc4ccccc4n3)C(=O)C2=CO1 (centres undefined),17.4 µM
24,COc1ccc2cc(/C=C3\SC(=S)NC3=O)c(N3CCOCC3)nc2c1,24.1 µM
25,Cc1ccc(/C=C2/NC(=O)N(Cc3ccccc3)C2=O)s1,> 38 µM (inactive)

row,Structure (SMILES),AC50
1,Cc1cc[n+](-c2[nH]c(=O)sc2/C=N/NC([S-])=Nc2ccccc2)cc1,4.83 µM
2,O=C(O)c1ccc(NS(=O)(=O)c2ccc3c(c2)C(=O)c2ccccc2C3=O)cc1,28.4 µM
3,COc1ccc(/C=C/C(=O)N/C(=C\c2ccco2)C(=O)NCCc2nc3ccccc3[nH]2)cc1,> 38 µM (inactive)
4,Cc1ccccc1C(=O)N=c1ccn(-c2nc3ccccc3nc2NS(=O)(=O)c2ccccc2)cc1,> 38 µM (inactive)
5,Cc1c(C(=O)NNC(=S)Nc2ccc(S(N)(=O)=O)cc2)oc2ccccc12,12.1 µM
6,Cn1c(=O)c(Nc2ccc(Cl)cc2)c2c3c(cccc31)C(=O)c1ccccc1-2,1.63 µM
7,Cc1c(N=NC2=C(O)CCCC2=O)c(=O)n(-c2ccccc2)n1C,> 38 µM (inactive)
8,O=C1NC(=O)N(c2ccccc2)C(=O)/C1=C/c1ccc([N+](=O)[O-])s1,23.7 µM
9,COc1ccccc1N1C(C)=CC(=C(C#N)c2nc3ccccc3s2)C=C1C,13.4 µM
10,O=C1c2cccc3c(Cl)ccc(c23)C(=O)N1O,26.2 µM
11,Nc1ccc2nc(CN3CCOCC3)[nH]c2c1,34.4 µM
12,COc1cc2c(cc1N/C=C(\C#N)c1nc(-c3ccc(F)cc3)cs1)oc1ccccc12,> 38 µM (inactive)
13,CCc1nnc(NS(=O)(=O)c2ccc(N=Cc3c(O)n(-c4ccc(Cl)cc4)c(=O)[nH]c3=O)cc2)s1,> 38 µM (inactive)
14,O=C(/C=C/Nc1ccc(S(=O)(=O)Nc2cnc3ccccc3n2)cc1)c1ccccc1,> 38 µM (inactive)
15,Nc1cc2c3c(cccc3c1)C(=O)N(CCN1CCCC1)C2=O,16 µM
16,O=[N+]([O-])c1ccc(NCc2ccccc2)c2nonc12,0.744 µM
17,O=C(CN1C(=O)/C(=C/c2ccco2)SC1=S)Nc1ccc(C(=O)O)c(O)c1,24.5 µM
18,Nc1ccc(N(CCO)CCO)cc1,> 38 µM (inactive)
19,CCOC(=O)C(=NC(C)C)NNc1cc(Cl)ccc1Cl,> 38 µM (inactive)
20,O=C(O)CCN1C(=O)/C(=C\c2ccc(-c3nc4ccccc4s3)o2)SC1=S,3.89 µM
21,O=c1c2ccccc2c(C=Nc2ccc(O)cc2)c(O)n1-c1nccs1,> 38 µM (inactive)
22,O=C(Nc1nc2c(s1)CN(Cc1ccccc1)CC2)c1cccc(S(=O)(=O)N2CCc3ccccc32)c1,> 38 µM (inactive)
23,CCCCOc1ccc(-c2cc(C(F)(F)F)c(C#N)c(SCC(=O)O)n2)cc1,11.8 µM
24,O=C1NC(=O)/C(=C\c2ccc(O)cc2O)S1,11.5 µM
25,CCOC(=O)/C=c1\s/c(=C\c2ccc3cc(OC)ccc3c2)c(=O)n1CC(=O)NCc1ccc2c(c1)OCO2,> 38 µM (inactive)

row,Structure (SMILES),AC50
1,CCCCCCNC(=O)C(C#N)c1nc2ccccc2nc1N1CCOCC1 (centres undefined),13.3 µM
2,Cn1c(O)c(/C=N/NC(=O)c2cc3ccccc3cc2O)c2ccccc21,5.01 µM
3,O=c1[nH]c(=O)n(Cc2ccccc2)c(O)c1/C=C1\C=Nc2ccccc21,29.8 µM
4,O=c1[nH]n2c(=O)c3c([nH]c2c1N=Nc1ccccc1)CCC3,< 0.3 µM
5,CCc1nnc(NC(=O)CCN2C(=O)/C(=C/c3cc(OC)c(OC)c(OC)c3)SC2=S)s1,> 38 µM (inactive)
6,Cc1ccc(NC(=O)/C(C#N)=C(\N)C(Cl)(Cl)Cl)nc1,8.19 µM
7,Cc1ccccc1Nc1cc2ccccc2c(=O)[nH]1,14.3 µM
8,Cc1nc2c3ccccc3nc(NNC(=O)CCC(=O)NC(C)C)n2n1,< 0.3 µM
9,O=C(N/N=C/C1C(=O)NC(=S)N(c2ccccc2)C1=O)c1cc(Br)c(O)c(Br)c1 (centres undefined),13 µM
10,N#C/C(=C\c1cccc([N+](=O)[O-])c1)c1nnc2n1CCCCC2,> 38 µM (inactive)
11,O=C1c2cccc3c(N4CCCCC4)ccc(c23)C(=O)N1c1ccccc1O,28.7 µM
12,NC(=O)c1c(NC(=O)C2COc3ccccc3O2)sc2c1CCN(Cc1ccccc1)C2 (centres undefined),> 38 µM (inactive)
13,Cc1ccc(C(=O)N/C(=C\c2ccc(-c3ccc([N+](=O)[O-])cc3)o2)C(=O)NC2CCS(=O)(=O)C2)cc1 (centres undefined),> 38 µM (inactive)
14,CCn1c(CSc2nnc3ccccn23)nc2cc(C(=O)O)ccc21,33.9 µM
15,Cc1nc2ccc3nc(NC(=O)c4ccc5c(c4)OCCO5)sc3c2s1,> 38 µM (inactive)
16,COc1cc(C=C2C(=O)c3ccccc3C2=O)cc(OC)c1OC,28.4 µM
17,CCOC(=O)C1CCN(c2nc3ccccc3nc2C(C#N)C(=O)OC(C)C)CC1 (centres undefined),> 38 µM (inactive)
18,C#CCN1C(=O)S/C(=C\c2ccc(-c3ccc(Cl)c(C(=O)O)c3)o2)C1=O,> 38 µM (inactive)
19,Cc1ccc(O)c(C(=O)c2cc(C#N)c(=O)n(-c3nccs3)c2)c1,14.2 µM
20,Cn1nc([N+](=O)[O-])c(C(C#N)c2nc3ccccc3n2C)c(Cl)c1=O (centres undefined),22.9 µM
21,O=C(O[C@@H]1OC2COC(=O)c3cc(O)c(O)c(O)c3-c3c(cc(O)c(O)c3O)C(=O)O[C@@H]([C@H]1O)[C@@H]2O)c1cc(O)c(O)c(O)c1,5.19 µM
22,Oc1[nH]c2ccccc2c1N=NC(=S)N1CCOCC1,6.32 µM
23,COc1ncnc2c1N=C1CC(C)(C)CC(N)=C1S2,19.6 µM
24,Cc1ccc(S(=O)(=O)N/N=C/c2ccc(O)c(O)c2)cc1[N+](=O)[O-],27 µM
